According to patent publication US20150004704A1, “COMPOSITIONS AND METHODS FOR INCREASING OIL CONTENT IN ALGAE” (A.B. Seeds Ltd., priority 2009, published 2015):
Several values for one entry are separate records, joined by “and”; a condition that tells them apart may be missing. Equal entries are not always repeated.

How the values were obtained:
Assay type in all cases: cell-based
[1] = tested on: Chlamydomonas reinhardtii; test: Oil content by Nile Red staining with hormone supplements (Example 3); conditions: 1 week, ratio to average of two controls, triplicate
Description: (§1) TX, and were grown at 22° C. under constant white light at an intensity of 175 micromole photon m^−2 s−1. Chlamydomonas reinhardtii (UTEX strain 90), Chlorella vulgaris (UTEX 2714) and Haematococcus pluvialis (UTEX strain 2505) were grown in TAP medium {Harris E H: The Chlamydomonas sourcebook: A comprehensive guide to biology and laboratory use. New-York: Academic Press; 1989}. Phaeodactylum tricornutum (UTEX strain 642) was grown in a modified LDM medium {Lewin, R. A., 1959. The isolation of algae. Rev. algol. no. 3: 182-197}.
(§2) Algal cells of Chlamydomonas reinhardtii, Phaeodactylum tricornutum and Haematococcus pluvialis, were each grown to a concentration of 10^5 cells/ml and divided into 7×250-ml flasks, each containing 50 ml medium with the following supplements (all values are final hormone concentrations):
(§3) IAA: 1.0 mg/liter, NAA: 1.0 mg/liter, 2,4-D: 1.0 mg/liter, 6-BAP: 0.1 mg/liter, and Kinetin: 0.1 mg/liter.
(§4) Oil content was measured in triplicate 1 week after addition of the hormones to the medium, using Nile Red staining: 200 μl of algal cells were placed in a 96-well plate (Costar 3596), mixed with 10 μl of Nile Red solution (N3013, Sigma. 1 mg/ml stock in acetone) and incubated for 10 minutes at room-temperature. Fluorescence was measured using a Thermo Electron Fluroskan Ascent with excitation at 485 nm and emission at 590 nm 200 μl of fresh growth media with 10 μl of Nile Red were used for blank measurements. Fluorescence was normalized against cell density as measured by an EL×808 microplate reader (BIOTEK Instruments Inc) at 630 nm and verified by cell count of selected samples. For each treatment the normalized oil content was defined as the oil content divided by the cell density. The average of the normalized oil content of the triplicates for each treatment was calculated. The effect of each treatment was determined by the ratio between the average of the normalized oil content and the average of the two control experiments.

[2] = tested on: Haematococcus pluvialis; test: as above; conditions: 1 week, ratio to average of two controls, triplicate
Description: as §1, §2, §3, §4

[3] = tested on: Phaeodactylum tricornutum; test: as above; conditions: 1 week, ratio to average of two controls, triplicate
Description: as §1, §2, §3, §4

[4] = tested on: Chlamydomonas reinhardtii; test: Cell density (OD 450 nm), C. reinhardtii with hormone supplements (Example 2); conditions: 1 week after addition, duplicates
Description: (§5) Algae were grown to a concentration of 10^5 cells/ml and divided into 10×250-ml flasks, each containing 50 ml TAP medium with the following hormone supplements (all values are final hormone concentrations):
(§6) IAA: 0.5 mg/liter and 1 mg/liter, NAA: 0.5 mg/liter and 1 mg/liter, 6-BAP: 0.05 mg/liter and 0.1 mg/liter, and Kinetin: 0.05 mg/liter and 0.1 mg/liter. No supplement was added to Controls 1 and 2.
(§7) Oil content was measured, in duplicate, one week after addition of the hormones to the medium, using Nile Red staining. 200 μl of Chlamydomonas reinhardtii cells were placed in a 96-well plate (Costar 3596), mixed with 10 μl of Nile Red solution (N3013, Sigma. 1 mg/ml stock in acetone) and incubated for 15 minutes at room-temperature. Fluorescence was measured using a Thermo Electron Fluroskan Ascent with excitation at 544 nm and emission at 590 nm 200 μl of fresh growth media with 10 μl of Nile Red were used for blank measurements. Fluorescence was normalized against cell density as measured by an EL×808 microplate reader (BIOTEK Instruments Inc) at 450 nm and verified by cell count of selected samples.
(§8) The growth rate in each flask was estimated by measuring the OD (optical density, at 450 nm), which represents cell density. For each treatment the normalized oil content was defined as the oil content divided by the cell density. The average of the normalized oil content of the duplicates for each treatment was calculated. The effect of each treatment was determined by the ratio between the average of the normalized oil content and the average of the two control experiments.

[5] = tested on: Chlamydomonas reinhardtii; test: Oil content by Nile Red staining, C. reinhardtii with hormone supplements (Example 2); design: Oil content: unit not given here; conditions: for Oil content: Nile Red fluorescence; for Oil content / Normalized oil content: duplicates; for Average normalized oil content: average of duplicates; for Normalized oil content: oil content divided by cell density; for Effect: ratio of average normalized oil content to average of two controls
Description: as §1, §5, §6, §7, §8

SMILES	Effect of addition of hormones to growth medium on oil content ([1]; supplement 1 mg/l)	Effect of addition of hormones to growth medium on oil content ([2]; supplement 1 mg/l)	Effect of addition of hormones to growth medium on oil content ([3]; supplement 1 mg/l)	Effect of addition of hormones to growth medium on oil content ([1]; supplement 0.1 mg/l)	Effect of addition of hormones to growth medium on oil content ([2]; supplement 0.1 mg/l)	Effect of addition of hormones to growth medium on oil content ([3]; supplement 0.1 mg/l)	Cell density ([4]; supplement 0.05 mg/l)	Cell density ([4]; supplement 0.1 mg/l)	Oil content ([5]; supplement 0.05 mg/l, 1 week)	Average normalized oil content ([5]; supplement 0.05 mg/l)	Normalized oil content ([5]; supplement 0.05 mg/l)	Effect ([5]; supplement 0.05 mg/l)	Oil content ([5]; supplement 0.1 mg/l, 1 week)	Average normalized oil content ([5]; supplement 0.1 mg/l)	Normalized oil content ([5]; supplement 0.1 mg/l)	Effect ([5]; supplement 0.1 mg/l)	Cell density ([4]; supplement 0.5 mg/l)	Cell density ([4]; supplement 1.0 mg/l)	Oil content ([5]; supplement 0.5 mg/l, 1 week)	Average normalized oil content ([5]; supplement 0.5 mg/l)	other results
O=C(O)COc1ccc(Cl)cc1Cl [2,4-D, 2,4-dichlorophenoxy acetic acid]	1.21 ± 0.03	1.69 ± 0.51	1.09 ± 0.04	–	–	–	–	–	–	–	–	–	–	–	–	–	–	–	–	–	–
c1ccc(CNc2ncnc3nc[nH]c23)cc1 [6-BAP, 6-Benzylaminopurine]	–	–	–	1.22 ± 0.13	1.28 ± 0.20	1.32 ± 0.20	0.29 and 0.27	0.28 and 0.27	2.709 and 2.587	9.41	9.28 and 9.55	1.29 ± 0.02	3.04 and 2.891	10.65	10.74 and 10.55	1.46 ± 0.02	–	–	–	–	–
O=C(O)Cc1c[nH]c2ccccc12 [IAA, Indole-3-acetic acid]	1.05 ± 0.11	0.96 ± 0.15	0.97 ± 0.04	–	–	–	–	–	–	–	–	–	–	–	–	–	0.29 and 0.26	0.33 and 0.30	2.747 and 2.748	10.17	Normalized oil content ([5]; supplement 0.5 mg/l): 9.57 and 10.78; Effect ([5]; supplement 0.5 mg/l): 1.39 ± 0.11; Oil content ([5]; supplement 1.0 mg/l, 1 week): 3.283 and 3.635; Average normalized oil content ([5]; supplement 1.0 mg/l): 10.92; Normalized oil content ([5]; supplement 1.0 mg/l): 9.89 and 11.96; Effect ([5]; supplement 1.0 mg/l): 1.49 ± 0.20
c1coc(CNc2ncnc3[nH]cnc23)c1 [Kinetin]	–	–	–	1.23 ± 0.03	1.09 ± 0.03	1.19 ± 0.02	0.31 and 0.28	0.29 and 0.27	3.023 and 3.071	10.47	9.85 and 11.09	1.43 ± 0.12	3.503 and 3.38	12.24	11.91 and 12.57	1.67 ± 0.06	–	–	–	–	increase compared to controls (oil content) ([5]; 0.1 mg/liter, 1 week, maximum effect): 67%
O=C(O)Cc1cccc2ccccc12 [NAA, α-Naphthaleneacetic acid]	0.99 ± 0.01	1.49 ± 0.35	0.90 ± 0.07	–	–	–	–	–	–	–	–	–	–	–	–	–	0.32 and 0.29	0.31 and 0.30	2.677 and 2.59	8.67	Normalized oil content ([5]; supplement 0.5 mg/l): 8.44 and 8.90; Effect ([5]; supplement 0.5 mg/l): 1.19 ± 0.04; Oil content ([5]; supplement 1.0 mg/l, 1 week): 3.059 and 3.232; Average normalized oil content ([5]; supplement 1.0 mg/l): 10.36; Normalized oil content ([5]; supplement 1.0 mg/l): 9.84 and 10.88; Effect ([5]; supplement 1.0 mg/l): 1.42 ± 0.10
